According to US20260217768A1, “NANOPARTICLE-NHE3 PEPTIDE TO TREAT DIARRHEA” (The Johns Hopkins University, priority 2023, published 2026):

What was measured:
NHE3 = test: Effect of N-terminal truncations of N3SP-1 on NHE3 activity in human enteroids (BCECF-fluorometry); format: cell-based; conditions: human duodenal enteroids, Hill equation
Procedure: NHE3 activity in PS120, Caco-2/BBe cells and human jejunal enteroids was determined fluorometrically (Photon Technologies Incorporated) using the intracellular pH sensitive dye BCECF, as reported (Levine et al., 1993; Sarker et al., 2008; Foulke-Abel et al., 2020). PS120/HA3-NHE3 cells were seeded on glass cover slips and studied at 70-80% confluency. Caco-2/BBe/HA3-NHE3 cells were grown to confluency on Transwell inserts (polyester, 0.4-μm pore size) and studied approximately 14-16 days pod. Human duodenal enteroid monolayers on Transwell inserts were differentiated for 5 days in the absence of Wnt3a, R-spondin, and noggin as described (Noel et al., 2017; Staab et al., 2020).
Rates of Na^+/H^+ exchange were determined as Na^+-dependent alkalinization in the presence of 50-μM HOE-694 (to inhibit all other plasma membrane NHE isoforms) in HCO3-free solutions, with internal calibration using the nigericin/K+ method, as previously described (Sarker et al., 2008; Foulke-Abel et al., 2020). Kinetic analysis was used for PS120 cell studies (expressed as Vmax) and initial rates (ΔpH/min) for Caco-2/BBe cells, mouse intestine in vitro, and human enteroids. For in vitro mouse jejunal transport studies, NHE3 activity (in the presence of 50-μM HOE-694) was measured using SNARF-4F at 37° C. in a perfusion chamber using a two-photon microscope (Olympus FV1000) and 25× objective, as described (Murtazina et al., 2011).
Concentration dependent effects on NHE3 basal activity was determined using BCECF-fluorometry. Kinetic analysis was determined of extent of stimulation of basal NHE3 activity; analysis was by use of the Hill equation.
Given the ability of N3SP-1Δ7 to prevent CTx-induced fluid secretion in vivo (FIG. 3E) and to stimulate basal NHE3 activity and prevent cAMP inhibition in human enteroids (FIG. 4C), further studies were carried out with human enteroids to determine the shortest N3SP-1-related peptide that would stimulate human NHE3. A series of N3SP-1 N-terminal truncations was synthesized and concentration-dependent stimulation of NHE3 activity determined using human jejunal enteroids.

mouse jejunum = conditions: in vivo
adenylate cyclase-cAMP = test: cAMP assay in human enteroid monolayers exposed to FSK; format: cell-based; conditions: nanoparticles with 250-nM peptide, FSK (10 μM) 45 min, CP-2 vs N3SP-1Δ7
Procedure: Human jejunal enteroid monolayers on Transwell inserts (Corning Cat #: 3470) were differentiated for 5 days and then in serum-free media were exposed apically to nanoparticles containing either 250-nM CP-2 or N3SP-1Δ7. The peptide and polymer in PBS were prepared just before use, allowed to combine for 10 min before being added to the apical surface of enteroid monolayers at room temperature. Monolayers were incubated for 4 hours at 37° C., 5% CO2 incubator before the nanoparticles were removed, then monolayers were washed 3 times with cold PBS and changed to differentiation media and moved to a 37° C. incubator. Differentiation media was removed 24 hours later and washed twice with CMGF-media (Advanced DMEM/F12 with 10-mM Hepes, 10-mM GlutaMax, and 1000 Units/mL Penn/Strep). Next, 100 μL of CMGF-media containing 10-mM Theophylline, 50-μM Cilostazol and 50-μM Rolipram was added to the apical and basolateral surfaces followed by exposure to FSK (10 μM) at 37° C., 5% CO2, for 45 min before apical and basolateral media were collected and cells were lysed in 200-μL 0.1 M HCl for cAMP analysis. CAMP in apical, basolateral, and cells was determined using nonradioactive, CAMP-ELISA kits from ENZO Life Sciences (Loerrach, German), using the acetylation protocol in which the yellow-colored product is inversely proportional to the amount of CAMP present in the sample.

[1] = molecular target: NHERF2 binding to NHE3 C-terminal peptides (Homo sapiens, UniProt Q15599); test: NHE3 peptide-NHERF2 overlay assay; conditions: peptide at 5 times the concentration of NHERF2 and MBP-NHE3 fusion peptides, n=5
NHERF2 binding to NHE3 C-terminal peptides, sequence (Q15599 whole entry, the tested form may be a part): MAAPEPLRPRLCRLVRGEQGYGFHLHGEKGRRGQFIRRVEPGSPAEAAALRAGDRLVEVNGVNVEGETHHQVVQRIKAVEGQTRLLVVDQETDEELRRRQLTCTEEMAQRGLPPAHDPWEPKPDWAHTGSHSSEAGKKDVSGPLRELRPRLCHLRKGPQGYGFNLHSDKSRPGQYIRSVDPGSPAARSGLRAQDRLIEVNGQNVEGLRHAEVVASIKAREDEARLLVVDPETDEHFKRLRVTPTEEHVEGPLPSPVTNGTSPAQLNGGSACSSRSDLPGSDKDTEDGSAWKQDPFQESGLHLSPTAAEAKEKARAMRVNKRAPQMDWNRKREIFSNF
Procedure: Two NHE3 C-terminal peptides containing the N3SP-1 sequence were separated on SDS-Page gradient gels and purified NHERF binding determined. Equal concentrations of NHE3 peptides and NHERF2 were used. Prior to NHERF2 addition, the blots were overlayed with 5× the concentration of N3SP-1Δ7 vs CP2.
Binding of purified full-length GST-NHERF2 to two NHE3 C-terminal peptides that contain the N3SP-1 sequence was determined in the presence of equal concentrations of CP-2 compared to N3SP-1Δ7. CP-2 and N3SP-1Δ7 peptides were used at 5 times the concentration of the NHERF2 fusion protein and the MBP-NHE3 fusion peptides.

[2] = Nanoparticle characterization: hydrodynamic diameter, zeta potential, stability; format: physicochemical; conditions: CR5 with peptide, 30:1 polymer:peptide weight ratio
Procedure: PBAE polymer and peptide were separately dissolved in pH 7.4 150-mM PBS and combined at a 1:1 volume ratio. Final concentrations of the components were 6-ng/μL peptide and 180-ng/μL polymer (30:1 polymer: peptide weight ratio). Polymer and peptide nanoparticles were allowed to self-assemble at room temperature for 10 minutes. For characterization, nanoparticles were diluted 1:5 in PBS. Hydrodynamic diameter and zeta potential were measured using a Malvern Zetasizer Pro (Malvern Panalytical, Malvern, UK). Stability was assessed by incubating nanoparticles at RT up to 45 minutes then measuring hydrodynamic diameter over 45 minutes. Nanoparticles were made immediately prior to each experiment.

[3] = system: differentiated human enteroid monolayers; test: Nanoparticle-peptide uptake in human enteroid monolayers (confocal microscopy); format: cell-based; conditions: apical addition, 2 μM, 4 h uptake, differentiated human enteroids
Procedure: […] After varying times from 15 min to 4 hours, enteroids were washed three times with PBS to remove extracellular nanoparticles and wells were replenished with fresh serum-containing media.
At varying times after nanoparticle addition up to overnight, enteroids were serum-starved for 2 hours then fixed in 4% paraformaldehyde for 30 minutes. After washing with PBS, formaldehyde was neutralized with 20-mM glycine. Enteroids were then permeabilized in 0.1% saponin, 1% BSA for 30 minutes. Fixed and permeabilized enteroids were stained for biotinylated peptide using streptavidin conjugated AlexaFluor 488 (1:100) and Hoechst stain (1:200). Enteroids were thoroughly washed with PBS and mounted onto microscope slides. Uptake was visualized using an Olympus FV3000RS confocal microscope and 40× objective (Olympus, Tokyo, Japan).

Substance: N3SP-1 lacking first seven N-terminal amino acids: RPSTVEASVSYLLRESASAVCLDMQSLEQRR [Peptide N3SP-1Δ7]
- Stimulation of NHE3 Activity (NHE3; basal NHE3 activity, BCECF-fluorometry): YES (39%)
- EC50 (NHE3; stimulation of basal NHE3 activity): 0.156 µM
- effect on CTx-stimulated net fluid secretion (loop weight/cm) (mouse jejunum): did not alter the efficacy
- FSK-increased intracellular cAMP (adenylate cyclase-cAMP): similar
- NHERF2 binding to NHE3 C-terminal peptides compared to control peptide CP-2 [1]: preferentially reduces NHERF2 binding
- NHERF2 binding to NHE3 C-terminal peptides compared to control peptide CP-2 ([1]; listed as N3SP-147): significantly reduced NHERF2 binding
- surface zeta potential (electrophoretic light scattering) [2]: 22.4±1.2 mV
- nanoparticle diameter (DLS) ([2]; aqueous): 385±30 nm
- uptake and location in enteroid monolayers [3]: lack of uptake
